# Data: PMC8020795 (Proceedings of the National Academy of Sciences of the …, 2021)
# Test system: HCA-1 cells
# Test: Wound healing assay
# Format: cell-based, murine
# Conditions: CXCL12 100 ng/mL, BPRCX807 10 μM, 24, 48, 72 h
# Procedure: [3-(2-Aminomethyl-oxazol-4-yl)-propyl]-[3-(tert-butoxycarbonyl-cyclohexyl-amino)- propyl]-carbamic acid tert-butyl ester (Linker 1). A mixture of L1-6 (10.35 g, 16.5 mmol) and 10% Pd/C (4.66 g) in iso-propanol (310 mL) was stirred under H2(g) at 50 °C for 15 h.
# The resulting mixture was filtered, and the filtrate was concentrated to afford Linker 1 (7.23 g, […]
# Wound healing and invasion assays
# Cell migration ability was measured by wound healing assay. HCA-1 cells (5 × 10^5 cells per well) were seeded onto 12-well plates and incubated overnight. When the cell confluence exceeded 90%, scratch wounds were made by scraping a straight line in the middle of the cell layer using the tip of a 1000 µL pipette. After washing the cells with PBS, the cells were incubated in serum-free medium under different treatment conditions (control, 100 ng/mL CXCL12, and 10 µM BPRCX807 with 100 ng/mL CXCL12). Then, 3-4 fields (40×) of each group were randomly chosen and observed by a microscope (IX83, Olympus, Japan) at time points of 0 h, 24h, 48 h and 72 h. For the invasion assay, HCA-1 cells were suspended in RPMI 1640 containing 0.5% FBS and then preincubated with the indicated concentrations of compounds for 10 min at 37 °C. […] After 17.5 h of incubation at 37 °C, the cells in both chambers of the inserts were measured with a CellTiter-Glo Luminescent Cell Viability Assay (Promega, Wisconsin). […]
smiles,measurement,value
Cc1cc(NC2CCN(C(=O)CCNCC(=O)O)CC2)nc(NCc2nc(CCCNCCCNC3CCCCC3)co2)n1 [BPRCX807],CXCL12-induced wound closure rate,significantly suppressed
